Patent US20240384350A1, “METHODS OF TREATING CANCER WITH KINASE INHIBITORS” (BOARD OF REGENTS, THE UNIVERSITY OF TEXAS SYSTEM, priority 2021, published 2024)

Tested on: EGFR mutations spanning exons 18-21
Assay: Ba/F3 panel of 76 cell lines expressing EGFR mutations, selectivity over WT EGFR by structure-function group
Format: cell-based
Details: Ex20ins mutations, FIG. 5A
Source text: To determine the effect of EGFR mutations on TKI sensitivity, a panel of 76 cell lines expressing EGFR mutations spanning exons 18-21 was generated and screened against 18 known EGFR inhibitors representing 1st (non-covalent), 2nd (covalent), and 3rd (covalent, T790M targeting) generation TKIs, and compounds under investigation for Ex20ins. […] For the various mutations, structure-function based groups were more predictive of drug sensitivity than exon based groups as determined by spearmen correlations (p<0.0001, FIG. 1F, FIG. 2). […]
After 48-72 hours of transduction, 2 μg/ml puromycin (Invitrogen) was added to Ba/F3 cell lines in complete RPMI. […] Plates were incubated for a minimum of 10 minutes, and bioluminescence was determined using a FLUOstar OPTIMA plate reader (BMG LABTECH). […] Statistical differences between groups were determined by ANOVA as described in the figure legends. […]

## CN(C)C/C=C/C(=O)Nc1cc2c(Nc3ccc(Cl)c(Br)c3)ncnc2cn1 [Tarlox-TKI]
  sensitivity in vitro: sensitive
